According to patent US20130011845A1, “MICRORNA REGULATING THE INSULIN SIGNALING PATHWAY, AND METHOD FOR SCREENING MATERIAL FOR CONTROLLING THE ACTION OF A TARGET THEREOF” (SNU R & DB Foundation, priority 2009, published 2013):

Assays:
FOG2 3′UTR = assay: dual-luciferase 3′UTR reporter assay, pAC-FOG2; assay type: cell-based; conditions: luciferase reporter with FOG2 3′UTR, human Hela cell lines; average of at least two independent experiments
Method: (§1) In order to determine whether the target genes identified in Example 7 are in actuality targets of miR-8 and miR-200 family miRNAs, the inventors performed cloning. In other words, […] containing the miRNA target sites. Specifically, in order to obtain cDNAs of respective target genes, from drosophila S2 cell lines or human Hela cell lines, total RNA was extracted by using RNeasy mini kit (QIAGEN, US). 1 μg of total RNA and 1 μl of Oligo-dT (Invitrogen, US) were charged with up to 50 μl of distilled water, and placed into SuperScript First-Strand Synthesis System (Invitrogen, US), followed by RT-PCR reaction. Through the reaction at 65° C. for 6 min, at 4° C. for 5 min, at 42° C. for 60 min, at 95° C. for 5 min, and at 4° C. for 5 min, cDNA was synthesized. By using the cDNA (3˜5 μg) as template, and using a primer pair on respective genes noted in Table 3 and PCR Mastermix (Promega, US), PCR was performed on 3′UTR of ush, Lap1, CG8445, dbo, Lar, Ced-12, CG12333, cbt, FOG2, SEPT7, RIN2, SHC1, HOXB5, LF11, TCF7L1, ERBB21P, ELMO2, BAP1, WDR37, KLHL20, PTPRD, RASSF2 and VAC14 from among the target genes selected in Example 7. Herein, PCRP on atro as a drosophila control gene was also performed. After the reaction was completed, the PCR product on each gene's 3′UTR region was cleaved by each of the following restriction enzymes:
(§2) Then, it was cloned into pAC5.1 luciferase vector (a kind gift of Elisa Izaurralde) cleaved by the same restriction enzymes so as to produce a reporter plasmid having a miR-8 or miR-200 family target sequence in luciferase gene's 3′UTR sequence.
(§3) Reporter plasmids and renilla luciferase expression vectors (Promega, US), as noted in Table 4, and miRNAs of miR-200 family of miR-141, miR-200a (hsa-miR-200a, SEQ ID: 87: 5′-[…]-3′), miR-200b, miR-200c (has-miR-200c, SEQ ID: 88: 5′-[…]-3′) and miR-429, and miR-8 (dme-miR-8, SEQ ID: 89: 5′-[…]-3′) were bought from Samchonri and cotransfected into drosophila S2 cell lines or human Hela cell lines. Then, the activities of luciferase were measured through dual-luciferase assay (Promega, US) by a luminometer (Biorad). Then, 7 gene pairs that respond both to miR-8 and to mir-200 family miRNAs in Drosophila and human cells, respectively were identified (see FIG. 15).

BAP1 3′UTR = assay: dual-luciferase 3′UTR reporter assay, pAC-BAP1; assay type: cell-based; conditions: luciferase reporter with BAP1 3′UTR, human Hela cell lines; average of at least two independent experiments
Method: as §1, §2, §3

KLHL20 3′UTR = assay: dual-luciferase 3′UTR reporter assay, pAC-KLHL20; assay type: cell-based; conditions: luciferase reporter with KLHL20 3′UTR, human Hela cell lines; average of at least two independent experiments
Method: as §1, §2, §3

ELMO2 3′UTR = assay: dual-luciferase 3′UTR reporter assay, pAC-ELMO2; assay type: cell-based; conditions: luciferase reporter with ELMO2 3′UTR, human Hela cell lines; average of at least two independent experiments
Method: as §1, §2, §3

HOXB5 3′UTR = assay: dual-luciferase 3′UTR reporter assay, pAC-HOXB5; assay type: cell-based; conditions: luciferase reporter with HOXB5 3′UTR, human Hela cell lines; average of at least two independent experiments
Method: as §1, §2, §3

TCF7L1 3′UTR = assay: dual-luciferase 3′UTR reporter assay, pAC-TCF7L1; assay type: cell-based; conditions: luciferase reporter with TCF7L1 3′UTR, human Hela cell lines; average of at least two independent experiments
Method: as §1, §2, §3

SEPT7 3′UTR = assay: dual-luciferase 3′UTR reporter assay, pAC-SEPT7; assay type: cell-based; conditions: luciferase reporter with SEPT7 3′UTR, human Hela cell lines; average of at least two independent experiments
Method: as §1, §2, §3

RIN2 3′UTR = assay: dual-luciferase 3′UTR reporter assay, pAC-RIN2; assay type: cell-based; conditions: luciferase reporter with RIN2 3′UTR, human Hela cell lines; average of at least two independent experiments
Method: as §1, §2, §3

RASSF2 3′UTR = assay: dual-luciferase 3′UTR reporter assay, pAC-RASSF2; assay type: cell-based; conditions: luciferase reporter with RASSF2 3′UTR, human Hela cell lines; average of at least two independent experiments
Method: as §1, §2, §3

VAC14 3′UTR = assay: dual-luciferase 3′UTR reporter assay, pAC-VAC14; assay type: cell-based; conditions: luciferase reporter with VAC14 3′UTR, human Hela cell lines; average of at least two independent experiments
Method: as §1, §2, §3

Hep3B cells = assay: MTT cellular viability assay; assay type: cell-based, human; conditions: Hep3B cells transfected with 30 nM
Method: Because stimulation of PI3K and Akt is known to facilitate cell proliferation and antagonize apoptosis (Pollak, 2008), the inventors measured cellular viability with the MTT (3-(4,5-dimethylthiazol-2-yl)-2,5-diphenyltetrazolium bromide) assay in Hep3B cells. Specifically, Hep3B cells were plated in a 96-well plate, and transfected with 30 nM of synthesized siGFP, miR-141, miR-200a, miR-200b, miR-200c, miR-429 or siFOG2. Then, to the plate, 50 μl of MTT solution (2 mg/ml) (Promega, US) was added per each well, followed by culturing at 37 °C for 1 hour. Then, each well was added with 150 μl of DMSO, and measured by a microplate reader (Bio-rad, US) at a wavelength of 590 nm. Also, Hep3B cells were transfected with 200 nM of luciferase, or 200 nM of oligonucleotides having complementary sequences to miR-141, miR-200a, miR-200b, miR-200c or miR-429, and then were subjected to MTT assay in the same manner as described above.

Substance | Represion fold, FOG2 (FOG2 3′UTR) [fold] | Represion fold, BAP1 (BAP1 3′UTR) [fold] | Represion fold, KLHL20 (KLHL20 3′UTR) [fold] | Represion fold, ELMO2 (ELMO2 3′UTR) [fold] | Represion fold, HOXB5 (HOXB5 3′UTR) [fold] | Represion fold, TCF7L1 (TCF7L1 3′UTR) [fold] | Represion fold, SEPT7 (SEPT7 3′UTR) [fold] | Represion fold, RIN2 (RIN2 3′UTR) [fold] | Represion fold, RASSF2 (RASSF2 3′UTR) [fold] | Represion fold, VAC14 (VAC14 3′UTR) [fold] | cell viability (MTT) (Hep3B cells)
5′-UAAUACUGCCUGGUAAUGAUGA-3′ (listed as RNA, chemistry not given here) [miR-200b] | 0.37 | 0.79 | 0.85 | 1.04 | 0.73 | 0.81 | 0.95 | 1.91 | 1.28 | 1.20 | increased cell viability
5′-UAACACUGUCUGGUAAAGAUGG-3′ (listed as RNA, chemistry not given here) [miR-141] | 0.59 | 0.84 | 0.84 | 0.73 | 0.92 | 0.91 | 1.00 | 1.10 | 0.90 | 0.99 | increased cell viability
5′-UAACACUGUCUGGUAACGAUGU-3′ (listed as RNA, chemistry not given here) [miR-200a] | 0.64 | 1.04 | 1.02 | 1.22 | 1.16 | 1.17 | 0.97 | 2.49 | 1.36 | 1.19 | increased cell viability
5′-UAAUACUGUCUGGUAAAACCGU-3′ (listed as RNA, chemistry not given here) [miR-429] | 0.47 | 0.67 | 0.55 | 0.89 | 0.72 | 0.71 | 1.14 | 1.41 | 1.01 | 1.17 | increased cell viability
